Data on 18 molecules can be found in PubChem BioAssay (NCI).

Several values for one entry are separate records, joined by “and”; a condition that tells them apart may be missing. Equal values may be shown once.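 48-hour exposure; five concentrations; linearly interpolated endpoints. Abbreviation: GI50, concentration required for 50% inhibition of growth. TGI is the concentration that stops growth completely.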 A value given as a limit tells only on which side of the number the result lay.

Among the test systems are KM20L2 colon; DMS 114 small cell lung; DMS 273 small cell lung; M19-MEL melanoma; HOP-18 NSCLC; SNB-78 CNS; MDA-N; RXF-631 renal; XF 498 CNS.
Holding throughout (assay): NCI anticancer screen, dose series, 48 h

As for `CCOC(=O)C1=C(C)N(Cc2ccccc2)C(=O)C1CC#N` (stereo unspecified), the TGI with KM20L2 colon, in the test with DMS 114 small cell lung, in the test on DMS 273 small cell lung, in the test on M19-MEL melanoma, in the test on HOP-18 NSCLC and with SNB-78 CNS was above 100 µM in each case.
In the test on MDA-N, `COc1ccc2c(c1)C1OCCNC1CC2` (stereo unspecified) showed a TGI above 100 µM.
Take `C=C1COC(O)(C2OCOC(C3CC(=O)NC(=O)C3)C2O)C1C` (stereo unspecified): the TGI in the test with KM20L2 colon was 0.0281 µM and 0.0721 µM; in the test with RXF-631 renal, 0.0249 µM and 0.0329 µM; in the test with DMS 114 small cell lung it was 0.0271 µM and 0.0437 µM; with DMS 273 small cell lung, 0.0283 µM and 0.0417 µM; in the test with M19-MEL melanoma, 0.00849 µM and 0.0215 µM; in the test with HOP-18 NSCLC, 0.035 µM and 0.0686 µM. For the same molecule, the TGI in the test on MDA-N is 0.0289 µM; with SNB-78 CNS, 0.0971 µM and 0.0358 µM. The GI50 in the test with HOP-18 NSCLC is 0.0112 µM.
Regarding `Cc1cc(=O)n2c3c(c4c(cc13)c(CO)cc(=O)n4C)OC2`, the TGI is 32.4 µM in the test with XF 498 CNS; above 100 µM in the test on KM20L2 colon; 38.9 µM with RXF-631 renal; 47.5 µM with DMS 114 small cell lung; above 100 µM in the test with DMS 273 small cell lung; 46.4 µM with M19-MEL melanoma. The results for the TGI in the test with HOP-18 NSCLC and in the test with SNB-78 CNS were 62.6 µM and above 100 µM, respectively.
As for `O=C(N/C(=C\c1ccc(/C=C(\NC(=O)c2ccccc2)c2nc3cc(Cl)ccc3[nH]2)cc1)c1nc2cc(Cl)ccc2[nH]1)c1ccccc1`, the TGI with XF 498 CNS was above 100 µM; in the test on KM20L2 colon it was 55.5 µM; in the test with DMS 114 small cell lung it was above 100 µM; in the test with DMS 273 small cell lung it was 50.4 µM; in the test on M19-MEL melanoma, above 100 µM; in the test on HOP-18 NSCLC it was above 100 µM. The molecule also yielded a TGI in the test on SNB-78 CNS above 100 µM.
In turn, `CC1(C)CCCC(C)(C2CCC3(C)C2C(O)CC2C4(C)CCC(O)C(C)(C)C4C(O)CC23C)O1` (stereo unspecified) registered a TGI in the test with MDA-N of 30.8 µM.
Regarding `CC1(c2cccc(N)c2)C2C(=O)NC(=O)C1C(=O)NC2=O` (stereo unspecified), the TGI with XF 498 CNS was 64.4 µM; in the test with KM20L2 colon it was above 100 µM; with RXF-631 renal it was above 100 µM; in the test on DMS 114 small cell lung it was 96.9 µM; in the test on DMS 273 small cell lung, 73.3 µM; in the test with M19-MEL melanoma, above 100 µM. Moreover, in the test with SNB-78 CNS, the TGI was above 100 µM.
Regarding `COC(=O)NN1C(C)=C(C(=O)OC)C2(C#N)C(C(=O)OC)=C(C)N(NC(=O)OC)C12N` (stereo unspecified), the TGI in the test on XF 498 CNS, with KM20L2 colon, in the test with RXF-631 renal, in the test on DMS 114 small cell lung, with DMS 273 small cell lung and in the test on M19-MEL melanoma was above 100 µM each time. Also, the TGI with HOP-18 NSCLC and in the test on SNB-78 CNS was above 100 µM in each case.
Regarding `Cc1cc2nc3ccc(=[N+](C)C)cc-3sc2cc1N`, the TGI with KM20L2 colon is 41.5 µM; in the test on DMS 114 small cell lung it was 2.79 µM; in the test with DMS 273 small cell lung it was 12.2 µM; in the test on M19-MEL melanoma, 0.354 µM; in the test on HOP-18 NSCLC, 36.6 µM; in the test on MDA-N, 2.35 µM. In the test on SNB-78 CNS, this molecule gave a TGI of 54.9 µM.
In the test on MDA-N, `COC1=C(Br)C(O)C2(C=C1Br)CC(C(=O)NCCCCNC(=O)C1=NOC3(C=C(Br)C(OC)=C(Br)C3O)C1)=NO2` (stereo unspecified) registered a TGI of 39.7 µM.
On the same count and under the same terms, the figure for `COc1ccc2c(Cc3c4ccccc4cc4ccccc34)cncc2c1O` is 4.55 µM.
In the case of `Cc1ccc2c(c1)C1(OC(=O)c3ccccc31)c1ccc(F)cc1O2` (stereo unspecified), the TGI in the test with XF 498 CNS, in the test with KM20L2 colon, in the test on RXF-631 renal, in the test on DMS 114 small cell lung, in the test with M19-MEL melanoma and in the test on HOP-18 NSCLC was above 100 µM in each case.
Take `Cc1ccc2c(c1)C1C(CO2)C(c2ccccc2)=NN1c1ccccc1` (stereo unspecified): the TGI in the test on KM20L2 colon, in the test on DMS 114 small cell lung, in the test on DMS 273 small cell lung, in the test on M19-MEL melanoma, with HOP-18 NSCLC and in the test on SNB-78 CNS was above 100 µM each time.
On to `Cn1c(=O)c2ccc(-c3ccc(Br)cc3)nc2n(C)c1=O`, for which the TGI in the test on XF 498 CNS, with RXF-631 renal, in the test on DMS 114 small cell lung, with DMS 273 small cell lung, in the test on M19-MEL melanoma and in the test with HOP-18 NSCLC was above 100 µM in each case. The molecule further registered a TGI with SNB-78 CNS above 100 µM.
On to `C/C(=N\NC(=S)N1CCN(C2CCCCCC2)CC1)c1ccccn1`, for which the GI50 is 3.83 µM in the test with KM20L2 colon; below 0.001 µM in the test on DMS 114 small cell lung; below 0.001 µM in the test with DMS 273 small cell lung; 0.928 µM with M19-MEL melanoma; 0.422 µM with HOP-18 NSCLC; 4.58 µM in the test on SNB-78 CNS. Also, the TGI in the test with KM20L2 colon is 8.96 µM and 2.07 µM; with DMS 114 small cell lung, 0.0461 µM and < 0.0408 µM; with DMS 273 small cell lung it was 8.26 µM and 2.19 µM; with M19-MEL melanoma, 3.37 µM; in the test with HOP-18 NSCLC, 7.89 µM; with SNB-78 CNS, 19 µM.
In turn, `CC(=O)OC12c3ccccc3-c3ccccc3C1C(C(=O)O)C2(Cl)C(=O)O` (stereo unspecified) gave a TGI in the test with MDA-N above 10 µM.
Turning to `CSc1ccc(OCC2OC2O)cc1` (stereo unspecified), the TGI was 78.7 µM with XF 498 CNS; above 100 µM in the test with KM20L2 colon; 86.3 µM with DMS 114 small cell lung; above 100 µM in the test with DMS 273 small cell lung; above 100 µM in the test on M19-MEL melanoma; above 100 µM with HOP-18 NSCLC. The TGI with SNB-78 CNS was above 100 µM.
With `COC(=O)C1=Cc2cc(OC)c(OC)cc2[C@H](c2ccc(OC)c(OC)c2)C1C(=O)OC` (stereo partly specified), the TGI with XF 498 CNS, in the test on KM20L2 colon, with DMS 114 small cell lung, with DMS 273 small cell lung, in the test on M19-MEL melanoma and in the test with SNB-78 CNS was above 100 µM in each case.
